This passage reports IC50 results from patent US9951068B2 (Proximagen Limited, priority 2013, dated 2018).

Structures are written as SMILES. Structures can show the parent of a compound that is named as a salt.

Data set [1] concerns the target human ether a go-go related gene (hERG) K+ channel (Homo sapiens (Human), UniProt Q12809). As to the kind of experiment: hERG assay, IonWorks patch clamp electrophysiology. Type of data set: cell-based. The following applies: Chinese Hamster Lung cell line stably expressing hERG; max assay concentration 11 uM. On the procedure:
Compounds of the invention were tested for inhibition of the human ether a go-go related gene (hERG) K^+ channel using IonWorks patch clamp electrophysiology. 8 Point concentration-response curves were generated on two occasions using 3-fold serial dilutions from the maximum assay concentration (11 uM). Electrophysiological recordings were made from a Chinese Hamster Lung cell line stably expressing the full length hERG channel. Single cell ion currents were measured in the perforated patch clamp configuration (100 ug/mL amphoterocin) at room temperature using an IonWorks Quattro instrument. The internal solution contained 140 mM KCl, 1 mM MgCl2, 1 mM EGTA and 20 mM HEPES and was buffered to pH 7.3. The external solution contained 138 mM NaCl, 2.7 mM KCl, 0.9 mM CaCl2, 0.5 mM MgCl2, 8 mM Na2HPO4 and 1.5 mM KH2PO4, and was buffered to pH 7.3. […] This sequence was repeated 5 times at a frequency of 0.25 Hz. Currents were measured from the tail step at the 5th pulse, and referenced to the holding current. Compounds were incubated for 6-7 min prior to a second measurement of the hERG signal using an identical pulse train. […] A control compound (quinidine) was used (see Table 20 below).

Data set [2] has as its target purified recombinantly expressed human SSAO (Homo sapiens (Human), UniProt Q16853). As to the kind of experiment: SSAO enzyme inhibition assay (HRP-coupled hydrogen peroxide detection or 14C-benzaldehyde detection, benzylamine substrate). Format: biochemical. The note with it: SSAO inhibitory activity, human recombinant SSAO, RT. On the procedure: All primary assays were performed at RT. with purified recombinantly expressed human SSAO. Enzyme was prepared essentially as described in Öhman et al. (Protein Expression and Purification 46 (2006) 321-331). In addition, secondary- and selectivity assays were performed using SSAO prepared from various tissues or purified rat recombinant SSAO. The enzyme activity was assayed with benzylamine as substrate by measuring either benzaldehyde production, using ^14C-labeled substrate, or by utilizing the production of hydrogen peroxide in a horseradish peroxidase (HRP) coupled reaction. Briefly, test compounds were dissolved in dimethyl sulfoxide (DMSO) to a concentration of 10 mM. Dose-response measurements were assayed by either creating 1:10 serial dilutions in DMSO to produce a 7 point curve or by making 1:3 serial dilutions in DMSO to produce 11 point curves.
In a horseradish peroxidase (HRP) coupled reaction, hydrogen peroxide oxidation of 10-acetyl-3,7-dihydroxyphenoxazine produced resorufin, which is a highly fluorescent compound (Zhout and Panchuk-Voloshina. Analytical Biochemistry 253 (1997) 169-174; Amplex® Red Hydrogen Peroxide/peroxidase Assay kit, Invitrogen A22188). Enzyme and compounds in 50 mM sodium phosphate, pH 7.4 were set to pre-incubate in flat-bottomed microtiter plates for approximately 15 min before initiating the reaction by addition of a mixture of HRP, benzylamine and Amplex reagent. Benzylamine concentration was fixed at a concentration corresponding to the Michaelis constant, determined using standard procedures. Fluorescence intensity was then measured at several time points during 1-2 h, exciting at 544 nm and reading the emission at 590 nm. For the human SSAO assay final concentrations of the reagents in the assay wells were: SSAO enzyme 1 ug/ml, benzylamine 100 uM, Amplex reagent 20 uM, HRP 0.1 U/mL and varying concentrations of test compound. The inhibition was measured as % decrease of the signal compared to a control without inhibitor (only diluted DMSO). The background signal from a sample containing no SSAO enzyme was subtracted from all data points. Data was fitted to a four parameter logistic model and IC50 values were calculated using the GraphPad Prism 4 or XLfit 4 programs.
SSAO activity was assayed using 14C-labeled benzylamine and analysed by measuring radioactive benzaldehyde. In a white 96-well optiplate (Packard), 20 uL of diluted test compound was pre-incubated at room temperature with 20 uL SSAO enzyme for approximately 15 min with continuous agitation. All dilutions were made with PBS. The reaction was initiated by adding 20 uL of the benzylamine substrate solution containing [7-14C] Benzylamine hydrochloride (CFA589, GE Healthcare). The plate was incubated for 1 h as above after which the reaction was stopped by acidification (10 uL 1M aq HCl). Then 90 uL Micro Scint-E solution (Perkin-Elmer) was added to each well and the plate was continuously mixed for 15 min. Phase separation occurred instantly and activity was read in a Topcount scintillation counter (Perkin-Elmer). In the final reaction well, the human recombinant SSAO concentration was 10 ug/ml. In order to optimize sensitivity, the substrate concentration was decreased as compared to the HRP coupled assay in order to get a higher fraction of radioactive product. In the human SSAO assay, benzylamine concentration was 40 uM (0.2 uCi/mL). Data was analysed as above.

Chain of purified recombinantly expressed human SSAO (Q16853 29-763): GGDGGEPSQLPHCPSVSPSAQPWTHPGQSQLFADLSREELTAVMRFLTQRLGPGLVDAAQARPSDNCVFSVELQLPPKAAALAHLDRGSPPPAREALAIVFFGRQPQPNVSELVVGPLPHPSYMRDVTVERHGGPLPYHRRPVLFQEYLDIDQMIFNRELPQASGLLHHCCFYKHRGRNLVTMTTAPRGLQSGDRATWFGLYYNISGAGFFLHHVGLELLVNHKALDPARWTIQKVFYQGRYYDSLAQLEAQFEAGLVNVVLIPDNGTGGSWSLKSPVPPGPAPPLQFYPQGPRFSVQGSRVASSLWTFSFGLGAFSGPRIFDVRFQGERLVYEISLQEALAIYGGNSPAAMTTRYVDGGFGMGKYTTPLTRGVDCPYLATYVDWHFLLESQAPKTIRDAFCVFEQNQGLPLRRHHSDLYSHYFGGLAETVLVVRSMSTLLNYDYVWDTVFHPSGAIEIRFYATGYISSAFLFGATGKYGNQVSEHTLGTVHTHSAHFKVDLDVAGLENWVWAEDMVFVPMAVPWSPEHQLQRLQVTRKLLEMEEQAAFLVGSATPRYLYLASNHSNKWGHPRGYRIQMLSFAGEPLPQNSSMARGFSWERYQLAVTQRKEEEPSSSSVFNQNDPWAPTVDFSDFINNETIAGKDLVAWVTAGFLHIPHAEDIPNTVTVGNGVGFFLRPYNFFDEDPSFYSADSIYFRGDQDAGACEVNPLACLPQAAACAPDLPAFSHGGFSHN
Chain of human ether a go-go related gene (hERG) K+ channel (Q12809 whole entry): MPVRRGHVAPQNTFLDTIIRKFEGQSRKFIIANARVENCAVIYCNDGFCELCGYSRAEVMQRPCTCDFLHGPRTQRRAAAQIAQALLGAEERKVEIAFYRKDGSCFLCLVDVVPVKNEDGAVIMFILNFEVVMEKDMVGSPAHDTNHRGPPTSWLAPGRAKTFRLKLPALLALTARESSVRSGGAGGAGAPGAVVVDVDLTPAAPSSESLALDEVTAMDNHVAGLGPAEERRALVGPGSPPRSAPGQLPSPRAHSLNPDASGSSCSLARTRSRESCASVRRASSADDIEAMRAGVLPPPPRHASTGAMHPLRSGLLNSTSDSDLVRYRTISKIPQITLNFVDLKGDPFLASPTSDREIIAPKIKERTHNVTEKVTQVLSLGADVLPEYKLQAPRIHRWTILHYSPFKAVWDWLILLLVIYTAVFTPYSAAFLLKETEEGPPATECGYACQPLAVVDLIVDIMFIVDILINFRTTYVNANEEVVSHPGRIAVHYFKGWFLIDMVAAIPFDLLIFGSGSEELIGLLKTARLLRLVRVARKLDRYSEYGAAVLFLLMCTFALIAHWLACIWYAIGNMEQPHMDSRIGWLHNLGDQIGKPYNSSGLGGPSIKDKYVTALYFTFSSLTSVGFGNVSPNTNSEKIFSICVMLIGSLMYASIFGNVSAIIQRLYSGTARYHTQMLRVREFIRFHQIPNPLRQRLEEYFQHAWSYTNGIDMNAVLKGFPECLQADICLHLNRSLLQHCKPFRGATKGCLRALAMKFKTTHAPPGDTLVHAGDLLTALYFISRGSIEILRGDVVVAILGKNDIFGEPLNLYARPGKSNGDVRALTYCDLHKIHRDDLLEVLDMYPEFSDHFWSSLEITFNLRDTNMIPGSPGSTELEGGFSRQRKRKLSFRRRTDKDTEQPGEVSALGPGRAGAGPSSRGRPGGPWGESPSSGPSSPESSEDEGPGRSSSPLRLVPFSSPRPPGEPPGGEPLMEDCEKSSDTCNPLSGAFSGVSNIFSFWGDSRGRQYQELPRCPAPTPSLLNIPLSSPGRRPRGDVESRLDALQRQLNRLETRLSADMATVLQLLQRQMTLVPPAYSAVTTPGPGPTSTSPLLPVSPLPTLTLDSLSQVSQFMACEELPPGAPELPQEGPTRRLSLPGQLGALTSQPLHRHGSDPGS

For `Clc1ccc(-n2c(-c3ccncc3)nc3ccncc32)cc1` [Example 2, 4-[3-(4-Chlorophenyl)-3H-imidazo[4,5-c]pyridin-2-yl]pyridine], in data set [1], the half-inhibitory concentration (IC50) (in general, the concentration needed to halve the response being measured) was greater than 10 µM.
The same measure, in the same setting: to `Clc1ccc(-n2c(-c3ccc(CN4CCOCC4)nc3)nc3ccncc32)cc1` [Example 3, 4-({5-[3-(4-Chlorophenyl)-3H-imidazo[4,5-c]pyridin-2-yl]pyridin-2-yl}methyl)morpholine] belongs greater than 10 µM.
As to `O=C1CN(c2ncc(-c3nc4ccncc4n3-c3ccc(F)cc3)cn2)CCN1` [Example 12, 4-{5-[3-(4-Fluorophenyl)-3H-imidazo[4,5-c]pyridin-2-yl]pyrimidin-2-yl}piperazin-2-one], the IC50 in data set [1] is greater than 10 µM.
In data set [1], `Clc1ccc(-n2c(-c3cnc(N4CCNCC4)o3)nc3ccncc32)cc1` [Example 18, 1-{5-[3-(4-Chlorophenyl)-3H-imidazo[4,5-c]pyridin-2-yl]-1,3-oxazol-2-yl}piperazine dihydrochloride] registered an IC50 greater than 10 µM.
Consider `Cc1cc(N(C)C)ncc1-c1nc2ccncc2n1-c1ccc(F)cc1` [Example 111, 5-[3-(4-Fluorophenyl)-3H-imidazo[4,5-c]pyridin-2-yl]-N,N,4-trimethylpyridin-2-amine], for which the IC50 in data set [2] fell in the range of 0.2 to 1.2 µM.
With `Fc1ccc(-n2c(-c3ccc(OC4CCOC4)nc3)nc3ccncc32)cc1` (centres unmarked) [Example 112, 5-[3-(4-Fluorophenyl)-3H-imidazo[4,5-c]pyridin-2-yl]-2-(oxolan-3-yloxy)pyridine], in data set [2], the IC50 was less than 0.05 µM.
`Fc1ccc(-n2c(-c3ccc(OC4CCOCC4)nc3)nc3ccncc32)cc1` [Example 113, 5-[3-(4-Fluorophenyl)-3H-imidazo[4,5-c]pyridin-2-yl]-2-(oxan-4-yloxy)pyridine]: in data set [2], the concentration for half-maximal inhibition (IC50) is less than 0.05 µM.
For the compound `O=c1cc(-c2nc3ccncc3n2-c2ccc(F)cc2)ccn1C1CC1` [Example 115, 1-Cyclopropyl-4-[3-(4-fluorophenyl)-3H-imidazo[4,5-c]pyridin-2-yl]-1,2-dihydropyridin-2-one], the IC50 in data set [2] is less than 0.05 µM.
Still for that read-out and setting: to `Cc1ccc(-n2c(-c3cnc(N4C[C@@H](C)O[C@@H](C)C4)nc3)nc3ccncc32)cn1` [Example 118, (2R,6S)-2,6-Dimethyl-4-{5-[3-(6-methylpyridin-3-yl)-3H-imidazo[4,5-c]pyridin-2-yl]pyrimidin-2-yl}morpholine] belongs less than 0.05 µM.
As to `Clc1ccc(-n2c(-c3ccccn3)cc3ccncc32)cc1` [Example 121, 2-[1-(4-Chlorophenyl)-1H-pyrrolo[2,3-c]pyridin-2-yl]pyridine], in data set [2], the IC50 is less than 0.05 µM.
Regarding `Clc1ccc(-n2c(-c3cncnc3)cc3ccncc32)cc1` [Example 123], the IC50 in data set [2] is less than 0.05 µM.
With `Clc1ccc(-n2c(-c3cnccn3)cc3ccncc32)cc1` [Example 124, 2-[1-(4-Chlorophenyl)-1H-pyrrolo[2,3-c]pyridin-2-yl]pyrazine], the concentration for half-maximal inhibition (IC50) in data set [2] was less than 0.05 µM.
As to `Cc1nc(C)c(-c2cc3ccncc3n2-c2ccc(Cl)cc2)[nH]1` [Example 126, 5-[1-(4-Chlorophenyl)-1H-pyrrolo[2,3-c]pyridin-2-yl]-2,4-dimethyl-1H-imidazole], the IC50 in data set [2] is less than 0.05 µM.
On the same count and under the same terms, to `Clc1ccc(-n2c(-c3cnc(N4CCOCC4)nc3)cc3ccncc32)cc1` [Example 127, 4-{5-[1-(4-Chlorophenyl)-1H-pyrrolo[2,3-c]pyridin-2-yl]pyrimidin-2-yl}morpholine] belongs less than 0.05 µM; to `Cc1cc(N2CCOCC2)ncc1-c1cc2ccncc2n1-c1ccc(Cl)cc1` [Example 129, 4-{5-[1-(4-Chlorophenyl)-1H-pyrrolo[2,3-c]pyridin-2-yl]-4-methylpyridin-2-yl}morpholine; bis(trifluoroacetic acid)], less than 0.05 µM; to `Brc1ccc(-n2c(-c3cnc(N4CCOCC4)nc3)cc3ccncc32)cc1` [Example 133, 4-{5-[1-(4-Bromophenyl)-1H-pyrrolo[2,3-c]pyridin-2-yl]pyrimidin-2-yl}morpholine], less than 0.05 µM.
In the case of `Cn1nccc1-c1cc2ccncc2n1-c1ccc(Cl)cc1` [Example 134, 5-[1-(4-Chlorophenyl)-1H-pyrrolo[2,3-c]pyridin-2-yl]-1-methyl-1H-pyrazole], the IC50 in data set [2] was less than 0.05 µM.
On to `Cn1cc(-c2cc3ccncc3n2-c2ccc(Cl)cc2)cn1` [Example 135, 4-[1-(4-Chlorophenyl)-1H-pyrrolo[2,3-c]pyridin-2-yl]-1-methyl-1H-pyrazole], for which the IC50 in data set [2] is less than 0.05 µM.
On the same count and under the same terms, to `CN(C)c1ncc(-c2cc3ccncc3n2-c2ccc(Cl)cc2)cn1` [Example 137, 5-[1-(4-Chlorophenyl)-1H-pyrrolo[2,3-c]pyridin-2-yl]-N,N-dimethylpyrimidin-2-amine; bis(trifluoroacetic acid)] belongs less than 0.05 µM; to `O=c1cc(-c2cc3ccncc3n2-c2ccc(Cl)cc2)ccn1C1CC1` [Example 138, 4-[1-(4-Chlorophenyl)-1H-pyrrolo[2,3-c]pyridin-2-yl]-1-cyclopropyl-1,2-dihydropyridin-2-one], less than 0.05 µM.
For `Clc1ccc(-n2c(-c3cnc(NC4CCOCC4)nc3)cc3ccncc32)cc1` [Example 139, 5-[1-(4-Chlorophenyl)-1H-pyrrolo[2,3-c]pyridin-2-yl]-N-(oxan-4-yl)pyrimidin-2-amine], in data set [2], the IC50 is less than 0.05 µM.
On the same count and under the same terms, to `Clc1ccc(-n2c(-c3ccc(CN4CCOCC4)nc3)cc3ccncc32)cc1` [Example 140, 4-({5-[1-(4-Chlorophenyl)-1H-pyrrolo[2,3-c]pyridin-2-yl]pyridin-2-yl}methyl)morpholine] belongs less than 0.05 µM; to `Cn1ccc(-c2cc3ccncc3n2-c2ccc(Cl)cc2)cc1=O` [Example 143, 4-[1-(4-Chlorophenyl)-1H-pyrrolo[2,3-c]pyridin-2-yl]-1-methyl-1,2-dihydropyridin-2-one], less than 0.05 µM; to `Cn1c(-c2cc3ccncc3n2-c2ccc(Cl)cc2)cccc1=O` [Example 145, 6-[1-(4-Chlorophenyl)-1H-pyrrolo[2,3-c]pyridin-2-yl]-1-methyl-1,2-dihydropyridin-2-one], less than 0.05 µM.
Take `Nc1cc(-c2cc3ccncc3n2-c2ccc(Cl)cc2)ccn1` [Example 147, 4-[1-(4-Chlorophenyl)-1H-pyrrolo[2,3-c]pyridin-2-yl]pyridin-2-amine]: in data set [2], the IC50 was less than 0.05 µM.
`Fc1cncc(-c2cc3ccncc3n2-c2ccc(Cl)cc2)c1` [Example 148, 3-[1-(4-Chlorophenyl)-1H-pyrrolo[2,3-c]pyridin-2-yl]-5-fluoropyridine]: the IC50 in data set [2] is less than 0.05 µM.
The same measure, in the same setting: to `Clc1ccc(-n2c(-c3cnc(NCC4CC4)nc3)cc3ccncc32)cc1` [Example 149, 5-[1-(4-Chlorophenyl)-1H-pyrrolo[2,3-c]pyridin-2-yl]-N-(cyclopropylmethyl)pyrimidin-2-amine] belongs less than 0.05 µM; to `Cc1cnccc1-c1cc2ccncc2n1-c1ccc(Cl)cc1` [Example 154, 4-[1-(4-Chlorophenyl)-1H-pyrrolo[2,3-c]pyridin-2-yl]-3-methylpyridine], less than 0.05 µM.
Same read-out and setting: to `O=c1cc(-c2cc3ccncc3n2-c2ccccc2)ccn1C1CC1` [Example 155, 1-Cyclopropyl-4-{1-phenyl-1H-pyrrolo[2,3-c]pyridin-2-yl}-1,2-dihydropyridin-2-one] belongs 0.2 to 1.2 µM.
